This note sets out measurements from US20250195530A1, “POLQ INHIBITORS” (ASTRAZENECA AB, priority 2022, published 2025).

Like-named read-outs stand apart in the source and are kept apart here.

One test has as its system DLD-1 cells. Put plainly: Inhibition of proliferation, DLD-1 BRCA2 wt control (Cell Titre Glo 3D). The settings on record: Homo sapiens, DLD-1, 168 h, 7 days. In kind it is cell-based. In a few lines:
(§1)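 Read-out: CellTiter-Glo 3D luminescence, day 7 for wt DLD-1, day 12 for BRCA2−/−, about 8-9 population doublings each. Seeding 1,500 or 3,000 cells/mL respectively. Dose range 10 μM–0.51 nM, 3-fold, 10 points, with re-dosing on day 6. IC50 from curve fit.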

A further test relates to DLD-1 BRCA2−/− cells. Kind of test: Homologous recombination synthetic lethal inhibition of proliferation, DLD-1 BRCA2-/- (Cell Titre Glo 3D). In kind it is cell-based. The note with it: Homo sapiens, DLD-1, 288 h, 12 days. In short, it runs like this:
as §1

[1] abbreviates: DLD-1 BRCA2 wt cells, read-out: POLQ PD Prolif Lumin DLD1 mean pIC50 (converted).
[2] abbreviates: DLD-1 BRCA2−/− cells, read-out: POLQ PD Prolif Lumin BRCA2 −/− mean pIC50 (converted).
[3] abbreviates: DLD-1 (BRCA2 wt control), Cell Titre Glo 3D, read-out: POLQ PD Prolif Lumin DLD1 Mean pIC50 (converted).
Where [4] appears, read: DLD-1 BRCA2−/−, Cell Titre Glo 3D, read-out: POLQ PD Prolif Lumin BRCA2 −/− Mean pIC50 (converted).

Regarding `CC1(Oc2ncnc3c2nc(-c2ccc(OCCN4CCNCC4)cc2Cl)n3Cc2cc(Cl)ccn2)CC1` [Example 10, 8-(2-Chloro-4-(2-(piperazin-1-yl)ethoxy)phenyl)-9-((4-chloropyridin-2-yl)methyl)-6-(1-methylcyclopropoxy)-9H-purine], the figures for the IC50 in the test on DLD-1 cells (setting [1]) and in the test on DLD-1 BRCA2−/− cells (setting [2]) were more than 10000 nM and 200 nM, respectively.

With `CC(C)(Oc1ncnc2c1nc(-c1ccc(OCCN3CCNCC3)cc1Cl)n2Cc1ccccc1)C(F)(F)F` [Example 11, 9-Benzyl-8-(2-chloro-4-(2-(piperazin-1-yl)ethoxy)phenyl)-6-((1,1,1-trifluoro-2-methylpropan-2-yl)oxy)-9H-purine], the IC50 in the test with DLD-1 cells (setting [1]) was 794 nM; in the test on DLD-1 BRCA2−/− cells (setting [2]), 251 nM.

As for `CC1(Oc2ncnc3c2nc(-c2ccc(OCCN4CCNCC4)cc2Cl)n3Cc2ccccc2)CCC1` [Example 12, 9-Benzyl-8-(2-chloro-4-(2-(piperazin-1-yl)ethoxy)phenyl)-6-(1-methylcyclobutoxy)-9H-purine], the IC50 in the test with DLD-1 cells (setting [1]) was 2000 nM; with DLD-1 BRCA2−/− cells (setting [2]), 126 nM.

As to `N#CC1(Oc2ncnc3c2nc(-c2ccc(OCCN4CCNCC4)cc2Cl)n3Cc2ccccc2)CC1` [Example 13, 1-((9-Benzyl-8-(2-chloro-4-(2-(piperazin-1-yl)ethoxy)phenyl)-9H-purin-6-yl)oxy)cyclopropane-1-carbonitrile], the IC50 is more than 10000 nM in the test with DLD-1 cells (setting [1]) and 251 nM with DLD-1 BRCA2−/− cells (setting [2]).

Consider `CC1(Oc2ccnc3c2nc(-c2ccc(OCCN4CCNCC4)cc2Cl)n3Cc2cc(Cl)ccn2)CC1` [Example 14, 2-(2-Chloro-4-(2-(piperazin-1-yl)ethoxy)phenyl)-3-((4-chloropyridin-2-yl)methyl)-7-(1-methylcyclopropoxy)-3H-imidazo[4,5-b]pyridine], for which the IC50 with DLD-1 cells (setting [1]) was more than 10000 nM; in the test with DLD-1 BRCA2−/− cells (setting [2]), 251 nM.

Regarding `CC1(Oc2cccc3c2nc(-c2ccc(OCCN4CCNCC4)cc2Cl)n3Cc2cc(Cl)ccn2)CC1` [Example 15, 2-(2-chloro-4-(2-(piperazin-1-yl)ethoxy)phenyl)-1-((4-chloropyridin-2-yl)methyl)-4-(1-methylcyclopropoxy)-1H-benzo[d]imidazole], the IC50 was 6310 nM in the test with DLD-1 cells (setting [1]) and 251 nM with DLD-1 BRCA2−/− cells (setting [2]).

Turning to `CC1(Oc2nccc3c2nc(-c2ccc(OCCN4CCNCC4)cc2Cl)n3Cc2cc(Cl)ccn2)CC1` [Example 16, 2-(2-chloro-4-(2-(piperazin-1-yl)ethoxy)phenyl)-1-((4-chloropyridin-2-yl)methyl)-4-(1-methylcyclopropoxy)-1H-imidazo[4,5-c]pyridine], the IC50 with DLD-1 cells (setting [1]) is more than 10000 nM; in the test with DLD-1 BRCA2−/− cells (setting [2]), 398 nM.

Turning to `CN(C)CCCOc1ccc(-c2nc3c(OC4(C)CC4)ncnc3n2Cc2cc(Cl)ccn2)c(Cl)c1` [Example 17, 3-(3-Chloro-4-(9-((4-chloropyridin-2-yl)methyl)-6-(1-methylcyclopropoxy)-9H-purin-8-yl)phenoxy)-N,N-dimethylpropan-1-amine], the IC50 with DLD-1 cells (setting [1]) was more than 10000 nM; in the test with DLD-1 BRCA2−/− cells (setting [2]), 79.4 nM.

Take `CC1(Oc2ncnc3c2nc(-c2ccc(OCCN4CC5(CNC5)C4)cc2Cl)n3Cc2ccccc2)CC1` [Example 18, 8-(4-(2-(2,6-Diazaspiro[3.3]heptan-2-yl)ethoxy)-2-chlorophenyl)-9-benzyl-6-(1-methylcyclopropoxy)-9H-purine]: the IC50 with DLD-1 cells (setting [1]) was 5010 nM; with DLD-1 BRCA2−/− cells (setting [2]), 398 nM.

In the case of `Cc1cc(N2CC(N)C2)ncc1-c1nc2c(OC3(C)CC3)ncnc2n1Cc1ccccc1` [Example 19, 1-(5-(9-Benzyl-6-(1-methylcyclopropoxy)-9H-purin-8-yl)-4-methylpyridin-2-yl)azetidin-3-amine], the IC50 in the test with DLD-1 cells (setting [1]) is more than 10000 nM; in the test on DLD-1 BRCA2−/− cells (setting [2]) it was 501 nM.

In the case of `CN1CCN(CCOc2cc(Cl)c(-c3nc4c(OC5(C)CC5)ncnc4n3Cc3ccccc3)cn2)CC1` [Example 20, 9-Benzyl-8-(4-chloro-6-(2-(4-methylpiperazin-1-yl)ethoxy)pyridin-3-yl)-6-(1-methylcyclopropoxy)-9H-purine], the IC50 is 7940 nM in the test with DLD-1 cells (setting [1]) and 398 nM in the test on DLD-1 BRCA2−/− cells (setting [2]).

For the molecule `Cc1cc(OCCN2CCCC2)ncc1-c1nc2c(OC3(C)CC3)ncnc2n1Cc1ccccc1` [Example 21, 9-Benzyl-8-(4-methyl-6-(2-(pyrrolidin-1-yl)ethoxy)pyridin-3-yl)-6-(1-methylcyclopropoxy)-9H-purine], the IC50 in the test with DLD-1 cells (setting [1]) is more than 10000 nM; in the test on DLD-1 BRCA2−/− cells (setting [2]), 398 nM.

As to `Cc1c(OCCN2CCNCC2)cncc1-c1nc2c(OC3(C)CC3)ncnc2n1Cc1ccccc1` [Example 22, 9-Benzyl-8-(4-methyl-5-(2-(piperazin-1-yl)ethoxy)pyridin-3-yl)-6-(1-methylcyclopropoxy)-9H-purine], the IC50 was more than 10000 nM with DLD-1 cells (setting [1]) and 631 nM in the test with DLD-1 BRCA2−/− cells (setting [2]).

For `CC1(Oc2ncnc3c2nc(-c2ccc(OCCN4CCNCC4)cc2Cl)n3Cc2cccc(Cl)n2)CC1` [Example 23, 8-(2-chloro-4-(2-(piperazin-1-yl)ethoxy)phenyl)-9-((6-chloropyridin-2-yl)methyl)-6-(1-methylcyclopropoxy)-9H-purine], the figures for the IC50 in the test on DLD-1 cells (setting [1]) and in the test with DLD-1 BRCA2−/− cells (setting [2]) were more than 10000 nM and 631 nM, respectively.

In the case of `Cc1cc(OCCN2CCNCC2)ncc1-c1nc2c(OC3(C)CCC3)ncnc2n1Cc1ccccc1` [Example 24, 9-Benzyl-8-(4-methyl-6-(2-(piperazin-1-yl)ethoxy)pyridin-3-yl)-6-(1-methylcyclobutoxy)-9H-purine], the IC50 with DLD-1 cells (setting [1]) is 3980 nM; with DLD-1 BRCA2−/− cells (setting [2]), 158 nM.

For `Cc1ccnc(Cn2c(-c3ccc(OCCN(C)C)cc3Cl)nc3c(OC4(C)CC4)ncnc32)c1` [Example 25, 2-(3-Chloro-4-(6-(1-methylcyclopropoxy)-9-((4-methylpyridin-2-yl)methyl)-9H-purin-8-yl)phenoxy)-N,N-dimethylethan-1-amine], the results for the IC50 in the test on DLD-1 cells (setting [1]) and in the test on DLD-1 BRCA2−/− cells (setting [2]) were more than 10000 nM and 100 nM, respectively.

For the molecule `Cc1ccnc(Cn2c(-c3ccc(OCCN4CC(O)C4)cc3Cl)nc3c(OC4(C)CC4)ncnc32)c1` [Example 26, 1-(2-(3-Chloro-4-(6-(1-methylcyclopropoxy)-9-((4-methylpyridin-2-yl)methyl)-9H-purin-8-yl)phenoxy)ethyl)azetidin-3-ol], the IC50 in the test on DLD-1 cells (setting [1]) was more than 10000 nM; with DLD-1 BRCA2−/− cells (setting [2]) it was 501 nM.

`Cc1ccnc(Cn2c(-c3ccc(CC(N)=O)cc3Cl)nc3c(OC4(C)CC4)ncnc32)c1` [Example 30, 2-(3-Chloro-4-(6-(1-methylcyclopropoxy)-9-((4-methylpyridin-2-yl)methyl)-9H-purin-8-yl)phenyl)acetamide]: the IC50 was more than 10000 nM in the test on DLD-1 cells (setting [3]) and 631 nM with DLD-1 BRCA2−/− cells (setting [4]).

Consider `CC1(Oc2ncnc3c2nc(-c2ccc(/C=C/C(=O)O)cc2Cl)n3Cc2cccc(Cl)c2)CC1` [Example 31, (E)-3-(3-Chloro-4-(9-(3-chlorobenzyl)-6-(1-methylcyclopropoxy)-9H-purin-8-yl)phenyl)acrylic acid], for which the IC50 in the test with DLD-1 cells (setting [3]) was more than 10000 nM; in the test with DLD-1 BRCA2−/− cells (setting [4]), 398 nM.

On to `CC1(Oc2ncnc3c2nc(-c2ccc(OCC(C)(C)C(=O)O)cc2Cl)n3Cc2cccc(Cl)c2)CC1` [Example 32, 3-(3-Chloro-4-(9-(3-chlorobenzyl)-6-(1-methylcyclopropoxy)-9H-purin-8-yl)phenoxy)-2,2-dimethylpropanoic acid], for which the IC50 in the test on DLD-1 cells (setting [3]) was more than 10000 nM; with DLD-1 BRCA2−/− cells (setting [4]), 631 nM.

For `Cc1ccnc(Cn2c(-c3ccc(OCCO)cc3Cl)nc3c(OC4(C)CC4)ncnc32)c1` [Example 33, 2-(3-Chloro-4-(6-(1-methylcyclopropoxy)-9-((4-methylpyridin-2-yl)methyl)-9H-purin-8-yl)phenoxy)ethan-1-ol], the results for the IC50 with DLD-1 cells (setting [3]) and in the test on DLD-1 BRCA2−/− cells (setting [4]) were more than 10000 nM and 126 nM, respectively.

As to `Cc1ccnc(Cn2c(-c3ccc(OC[C@H](C)O)cc3Cl)nc3c(OC4(C)CC4)ncnc32)c1` [Example 36, (S)-1-(3-Chloro-4-(6-(1-methylcyclopropoxy)-9-((4-methylpyridin-2-yl)methyl)-9H-purin-8-yl)phenoxy)propan-2-ol], the IC50 in the test with DLD-1 cells (setting [3]) is more than 10000 nM; in the test with DLD-1 BRCA2−/− cells (setting [4]), 251 nM.

Consider `Cc1ccnc(Cn2c(-c3ccc(OC[C@@H](C)O)cc3Cl)nc3c(OC4(C)CC4)ncnc32)c1` [Example 37, (R)-1-(3-Chloro-4-(6-(1-methylcyclopropoxy)-9-((4-methylpyridin-2-yl)methyl)-9H-purin-8-yl)phenoxy)propan-2-ol], for which the IC50 was more than 10000 nM in the test with DLD-1 cells (setting [3]) and 126 nM in the test with DLD-1 BRCA2−/− cells (setting [4]).

Take `CC1(Oc2ncnc3c2nc(-c2ccc(CC(N)=O)cc2Cl)n3Cc2cc(Cl)ccn2)CC1` [Example 38, 2-(3-Chloro-4-(9-((4-chloropyridin-2-yl)methyl)-6-(1-methylcyclopropoxy)-9H-purin-8-yl)phenyl)acetamide]: the results for the IC50 in the test with DLD-1 cells (setting [3]) and in the test on DLD-1 BRCA2−/− cells (setting [4]) were more than 10000 nM and 398 nM, respectively.

For `Cc1ccnc(Cn2c(-c3ccc(OC4CN(C(=O)CO)C4)cc3Cl)nc3c(OC4(C)CC4)ncnc32)c1` [Example 39, 1-(3-(3-Chloro-4-(6-(1-methylcyclopropoxy)-9-((4-methylpyridin-2-yl)methyl)-9H-purin-8-yl)phenoxy)azetidin-1-yl)-2-hydroxyethan-1-one], the IC50 in the test with DLD-1 cells (setting [3]) was more than 10000 nM; with DLD-1 BRCA2−/− cells (setting [4]), 158 nM.

As for `CC(=O)N1CC(Oc2ccc(-c3nc4c(OC5(C)CC5)ncnc4n3Cc3cc(C)ccn3)c(Cl)c2)C1` [Example 40, 1-(3-(3-Chloro-4-(6-(1-methylcyclopropoxy)-9-((4-methylpyridin-2-yl)methyl)-9H-purin-8-yl)phenoxy)azetidin-1-yl)ethan-1-one], the IC50 in the test with DLD-1 cells (setting [3]) is more than 10000 nM; in the test with DLD-1 BRCA2−/− cells (setting [4]), 158 nM.
